Read-outs that look alike come from different tables or passages of the source.

The source of these data is paper PMC5067538 (Frontiers in Microbiology, 2016).

In assay [1] the target is T1, PrbP/RpoB (two-hybrid, PrbP with RpoB 21-150) (Candidatus Liberibacter asiaticus, UniProt A0ABM5NE52).
T1 construct: gene WSI_01420
The note with it: E. coli TOP10, 240 min, 37 °C, inhibition of PrbP/RpoB interaction, indirect reporter.

The target in the next assay is T2, PrbP (CLIBASIA_01510) (Candidatus Liberibacter asiaticus, UniProt A0ABM5NE52).
T2 construct: gene WSI_01420
The note with it: 2.5 µM PrbP, 1 ng biotin-labelled rplK promoter probe, 10 mM HEPES pH 7.5, 150 mM NaCl, 37 °C.

On to `CN(C)Cc1c[nH]c2ccccc12` [Gramine], for which the “β-galactosidase activity^d (% decrease)” value in assay [1] (40 µM compound) is on record as 15.3 ± 0.3%. For `Cc1ncc([N+](=O)[O-])n1CCO` [Metronidazole], the “β-galactosidase activity^d (% decrease)” value in assay [1] (50 µM compound) is 53.7 ± 10%. Regarding `Cc1c(Cl)cccc1Nc1ccccc1C(=O)O` [Tolfenamic acid], the “β-galactosidase activity^d (% decrease)” value in assay [1] (25 µM compound) was 17.5 ± 5.3%. Moreover, at PrbP (CLIBASIA_01510), the complete disruption turned out to be 350 µM.
